Several values for one entry are separate records, joined by “and”; a condition that tells them apart may be missing. Identical values can stand only once. Toxic doses and inconclusive results are not listed.
Tested on: BDF1 mice, P388 leukemia ip, median survival T/C
Experiment: NCI In Vivo Anticancer Drug Screen. Data for tumor model P388 Leukemia (intraperitoneal) in B6D2F1 (BDF1) mice
Settings: endpoint: median survival time, higher = longer survival
Outline: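 Compound-treated tumour-bearing mice were compared with vehicle-treated controls. Survival was recorded, and the value is the treated-group measurement divided by the control-group measurement (T/C).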

[1] = dose: 100.0 mg/kg/injection, schedule: Q01DX009 (ip), vehicle: Klucel (hydroxypropylcellulose) (HPC)
[2] = dose: 200.0 mg/kg/injection, schedule: Q01DX009 (ip), vehicle: Klucel (hydroxypropylcellulose) (HPC)
[3] = dose: 400.0 mg/kg/injection, schedule: Q01DX009 (ip), vehicle: Klucel (hydroxypropylcellulose) (HPC)

**Q.** For `CC/C(=C\c1cccc([N+](=O)[O-])c1)C(=O)O`, which T/C [1] is on record?
**A.** Its T/C is 100 % of control.

**Q.** What about the T/C [2] of the same compound?
**A.** Its T/C is 100 % of control.

**Q.** What about the T/C [3] of the same compound?
**A.** The T/C was 109 % of control.

**Q.** For `Brc1cnn2c1NCC2`, which T/C (dose: 12.5 mg/kg/injection, schedule: Q01DX009 (ip), vehicle: water) is on record?
**A.** The T/C was 100 % of control.

**Q.** What about the T/C (dose: 25.0 mg/kg/injection, schedule: Q01DX009 (ip), vehicle: water) of the same compound?
**A.** The T/C was 93 % of control.

**Q.** What about the T/C (dose: 25.0 mg/kg/injection, schedule: Q04DX003 (ip), vehicle: water) of the same compound?
**A.** The T/C was 109 % of control and 114 % of control.

**Q.** What about the T/C (dose: 50.0 mg/kg/injection, schedule: Q01DX009 (ip), vehicle: water) of the same compound?
**A.** Its T/C is 98 % of control.

**Q.** And the T/C (dose: 50.0 mg/kg/injection, schedule: Q04DX003 (ip), vehicle: water)?
**A.** Its T/C is 95 % of control and 118 % of control.

**Q.** What about the T/C (dose: 100.0 mg/kg/injection, schedule: Q01DX009 (ip), vehicle: water) of the same compound?
**A.** Its T/C is 97 % of control.

**Q.** What about the T/C (dose: 100.0 mg/kg/injection, schedule: Q04DX003 (ip), vehicle: water) of the same compound?
**A.** The T/C was 95 % of control and 114 % of control.

**Q.** What about the T/C (dose: 200.0 mg/kg/injection, schedule: Q01DX009 (ip), vehicle: water) of the same compound?
**A.** The T/C was 93 % of control.

**Q.** What about the T/C (dose: 200.0 mg/kg/injection, schedule: Q04DX003 (ip), vehicle: water) of the same compound?
**A.** The T/C was 93 % of control.

**Q.** What does the source list for `CN(C)CCCc1c2ccccc2nc2ccc(Cl)cc12`?
**A.** T/C (dose: 1.56 mg/kg/injection, schedule: Q01DX009 (ip), vehicle: saline): 109 % of control; T/C (dose: 3.12 mg/kg/injection, schedule: Q01DX009 (ip), vehicle: saline): 90 % of control; T/C (dose: 6.0 mg/kg/injection, schedule: Q04DX003 (ip), vehicle: saline): 104 % of control; T/C (dose: 6.25 mg/kg/injection, schedule: Q01DX009 (ip), vehicle: saline): 100 % of control and 109 % of control; T/C (dose: 11.0 mg/kg/injection, schedule: Q01DX009 (ip), vehicle: saline): 109 % of control; T/C (dose: 12.0 mg/kg/injection, schedule: Q04DX003 (ip), vehicle: saline): 109 % of control; T/C (dose: 12.5 mg/kg/injection, schedule: Q01DX009 (ip), vehicle: saline): 100 % of control; T/C (dose: 16.0 mg/kg/injection, schedule: Q01DX009 (ip), vehicle: saline): 100 % of control; T/C (dose: 25.0 mg/kg/injection, schedule: Q04DX003 (ip), vehicle: saline): 109 % of control; T/C (dose: 37.0 mg/kg/injection, schedule: Q01DX009 (ip), vehicle: saline): 118 % of control; T/C (dose: 50.0 mg/kg/injection, schedule: Q01DX009 (ip), vehicle: saline): 109 % of control

**Q.** `[Cl][Co][Cl].[NH-]CC[NH-].[NH-]CC[NH-]` was tested. Which T/C (dose: 25.0 mg/kg/injection, schedule: Q04DX002 (ip), vehicle: saline) did it give?
**A.** Its T/C is 100 % of control.

**Q.** And the T/C (dose: 50.0 mg/kg/injection, schedule: Q04DX002 (ip), vehicle: saline)?
**A.** The T/C was 109 % of control.

**Q.** And the T/C (dose: 100.0 mg/kg/injection, schedule: Q04DX002 (ip), vehicle: saline)?
**A.** Its T/C is 104 % of control and 111 % of control.

**Q.** For `Cc1cc(C)c(C(=O)CC(=O)c2cccnc2)c(C)c1`, which T/C (dose: 100.0 mg/kg/injection, schedule: Q01DX009 (ip), vehicle: other) is on record?
**A.** Its T/C is 115 % of control.

**Q.** And the T/C (dose: 100.0 mg/kg/injection, schedule: Q04DX003 (ip), vehicle: other)?
**A.** Its T/C is 100 % of control.

**Q.** What about the T/C (dose: 200.0 mg/kg/injection, schedule: Q01DX009 (ip), vehicle: other) of the same compound?
**A.** The T/C was 120 % of control.

**Q.** What about the T/C (dose: 200.0 mg/kg/injection, schedule: Q04DX003 (ip), vehicle: other) of the same compound?
**A.** The T/C was 100 % of control.

**Q.** And the T/C (dose: 400.0 mg/kg/injection, schedule: Q01DX009 (ip), vehicle: other)?
**A.** The T/C was 110 % of control.

**Q.** And the T/C (dose: 400.0 mg/kg/injection, schedule: Q04DX003 (ip), vehicle: other)?
**A.** Its T/C is 100 % of control.

**Q.** `CC1C(=O)OCC2=CCN3CCC(OC(=O)C(C)C1(C)O)C23` (centres undefined) was tested. Which T/C (dose: 10.0 mg/kg/injection, schedule: Q01DX010 (ip), vehicle: saline) did it give?
**A.** Its T/C is 100 % of control.

**Q.** And the T/C (dose: 20.0 mg/kg/injection, schedule: Q01DX010 (ip), vehicle: saline)?
**A.** Its T/C is 105 % of control.

**Q.** What about the T/C (dose: 25.0 mg/kg/injection, schedule: Q01DX010 (ip), vehicle: carboxymethylcellulose (CMC)) of the same compound?
**A.** Its T/C is 122 % of control.

**Q.** And the T/C (dose: 40.0 mg/kg/injection, schedule: Q01DX010 (ip), vehicle: saline)?
**A.** The T/C was 150 % of control.

**Q.** And the T/C (dose: 50.0 mg/kg/injection, schedule: Q01DX010 (ip), vehicle: carboxymethylcellulose (CMC))?
**A.** The T/C was 111 % of control.

**Q.** What about the T/C (dose: 100.0 mg/kg/injection, schedule: Q01DX010 (ip), vehicle: carboxymethylcellulose (CMC)) of the same compound?
**A.** Its T/C is 88 % of control.

**Q.** For `CC(Oc1cc(Cl)ccc1Cl)C(=O)O` (centres undefined), which T/C [1] is on record?
**A.** Its T/C is 90 % of control.

**Q.** What about the T/C (dose: 100.0 mg/kg/injection, schedule: Q04DX003 (ip), vehicle: Klucel (hydroxypropylcellulose) (HPC)) of the same compound?
**A.** Its T/C is 100 % of control.

**Q.** And the T/C [2]?
**A.** The T/C was 100 % of control.

**Q.** And the T/C (dose: 200.0 mg/kg/injection, schedule: Q04DX003 (ip), vehicle: Klucel (hydroxypropylcellulose) (HPC))?
**A.** Its T/C is 104 % of control.

**Q.** What about the T/C [3] of the same compound?
**A.** The T/C was 113 % of control.

**Q.** What about the T/C (dose: 400.0 mg/kg/injection, schedule: Q04DX003 (ip), vehicle: Klucel (hydroxypropylcellulose) (HPC)) of the same compound?
**A.** The T/C was 108 % of control.

Source: PubChem BioAssay AID328 (DTP/NCI, 2004)
